Measured values taken from US9029391B2 (priority 2011, dated 2015).

tested on: HIV; experiment: MT4 Assay (anti-HIV activity); format: cell-based; conditions: Human immunodeficiency virus 1, 96 h, read-out: HIV MT4 Assay IC50, HTLV-1 transformed cell line MT-4, cell titer glo, 10 point dose response curve
Outline: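 MT-4 cells (HTLV-1 transformed) were used for antiviral activity and cytotoxicity, run in parallel, with luminescence read by CellTiter-Glo 96 hours later. Percent inhibition was expressed against the no-compound control. IC50s came from 10-point curves of 3-4-fold serial dilutions spanning >1000-fold.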

First: Cc1ccc(-c2c(C(OC(C)(C)C)C(=O)O)n(C)c(=O)c3cc(-c4cnn(C)c4)ccc23)cc1C (stereo not shown) [Example 192, [(1,1-dimethylethyl)oxy][4-(3,4-dimethylphenyl)-2-methyl-7-(1-methyl-1H-pyrazol-4-yl)-1-oxo-1,2-dihydro-3-isoquinolinyl]acetic acid]
Second: Cc1ccc(-c2c(C(OC(C)(C)C)C(=O)O)n(C)c(=O)c3cc(-c4ccoc4C)ccc23)cc1C (stereo not shown) [Example 193, [(1,1-dimethylethyl)oxy][4-(3,4-dimethylphenyl)-2-methyl-7-(2-methyl-3-furanyl)-1-oxo-1,2-dihydro-3-isoquinolinyl]acetic acid]
The IC50 of the first is 3.8-fold lower: 0.35 µM for the first, 1.34 µM for the second. The first is the more potent here.

First: Cc1ccc(N(C)c2c(C(OC(C)(C)C)C(=O)O)n(C)c(=O)c3ccccc23)cc1C (stereo not shown) [Example 212, 2-(tert-Butoxy)-2-(4-((3,4-dimethylphenyl)(methyl)amino)-2-methyl-1-oxo-1,2-dihydroisoquinolin-3-yl)acetic acid]
Second: CCOC(C(=O)O)c1c(-c2ccc(C)cc2C)c2ccccc2c(=O)n1C (stereo not shown) [Example 218, [4-(2,4-dimethylphenyl)-2-methyl-1-oxo-1,2-dihydro-3-isoquinolinyl](ethyloxy)acetic acid]
The IC50 of the first is 1.5-fold higher: 50 µM for the first, 33.2 µM for the second.

Compared with CCCC(C(=O)O)c1c(-c2ccc(C)cc2C)c2ccccc2c(=O)n1C (stereo not shown) [Example 216, 2-[4-(2,4-dimethylphenyl)-2-methyl-1-oxo-1,2-dihydro-3-isoquinolinyl]pentanoic acid], Cc1ccc(-c2c(C(CC(C)C)C(=O)O)n(C)c(=O)c3ccccc23)c(C)c1 (stereo not shown) [Example 217, 2-[4-(2,4-dimethylphenyl)-2-methyl-1-oxo-1,2-dihydro-3-isoquinolinyl]-4-methylpentanoic acid] is 2.8-fold lower in IC50: 36.6 µM for the first, 13.1 µM for the second. The second is the more potent here.

For Cc1ccc(-c2c(C(OC(C)(C)C)C(=O)O)n(C)c(=O)c3cc(-c4cn(CCO)nn4)ccc23)c(C)c1 (stereo not shown) [Example 219, [(1,1-dimethylethyl)oxy]{4-(2,4-dimethylphenyl)-7-[1-(2-hydroxyethyl)-1H-1,2,3-triazol-4-yl]-2-methyl-1-oxo-1,2-dihydro-3-isoquinolinyl}acetic acid], the IC50 was 11.1 µM.
